Common to all, as to format: cell-based
The subject of assay [1] is Salmonella typhimurium enb-7. The text has this:
(§1) In the indicator mutants, the synthesis of the respective siderophores, e.g. pyoverdin, pyochelin, enterobactin, aerobactin or yersiniabactin, or the biosynthesis of aromatic compounds, is blocked, or there is a lack of receptors for enterobactin, pyochelin or pyoverdin and for other important components for the bacterial transport of iron (e.g. the membrane proteins Cir, Fiu, FepA and TonB). Under conditions where there is a lack of iron, these mutants therefore cannot grow or can only grow to a very slight extent. In particular, the following indicator mutants were used: Pseudomonas aeruginosa PAO 6609, K 407, 690; E. coli AB 2847, Salmonella typhimurium enb-7, TA 270; Klebsiella pneumoniae KN 4401; Yersinia enterocolitica WAH; Proteus mirabilis 12 (wild); Proteus vulgaris 718 (wild) and Morganella morganii SBK3 (wild). […] The controls used were ferrioxamine E for the Pseudomonas strains, ferrioxamine G and enterobactin for the Salmonella strains, ferrichrome for the E. coli, Klebsiella and Y. enterocol. strains, and 3,4-dihydroxybenzylidene-2,4,6-trimethylaniline for Morganella morganii (see the above literature reference by R. Reissbrodt et al.).
(§2) The annotations + and (+) relate to non-specific promotion of growth.

The subject of assay [2] is Salmonella typhimurium TA 2700.
From the text: as §1, §2

Another assay deals with E. coli AB 2847.
From the text: as §1, §2

Assay [3] deals with Pseudomonas aeruginosa 690.
From the text: as §1, §2

In assay [4] the test system is Klebsiella pneumoniae KN 4401. The settings on record: Klebsiella KN 4401.
From the text: as §1, §2

Assay [5] has as its system Pseudomonas aeruginosa K 407. The note with it: Pseudomonas aeruginosa K407.
From the text: as §1, §2

The test system of assay [6] is Proteus mirabilis 12 (wild). The note with it: Proteus mir. 12.
From the text: as §1, §2

Assay [7] relates to Proteus vulgaris 718 (wild). The note with it: Proteus vul. 718.
From the text: as §1, §2

Assay [8] has as its system Pseudomonas aeruginosa PAO 6609.
From the text: as §1, §2

Assay [9] concerns Morganella morganii SBK3 (wild).
From the text: as §1, §2

Like-named read-outs stand apart in the source and are kept apart here.

As for `CC(=O)Oc1cccc(C(=O)N[C@@H](CO)C(=O)O)c1OC(C)=O` [Substance 23, L-2-[2,3-Diacetoxybenzoylamino)-3-hydroxypropionic Acid], the “Growth areas of siderophore indicator strains (diameter)” value (“Growth areas” below) in assay [1] was determined as 27 mm; in assay [2], 20 mm; in the assay with E. coli AB 2847, 22 mm; in assay [3], 14 mm.
For `CC(=O)Oc1ccc(C=Nc2ccc(C(=O)O)cc2)cc1OC(C)=O` [Substance 6, 4-(3,4-Diacetoxybenzylideneamino)-benzoic Acid], the “Growth areas” value in [1] is reported as 34 mm; in [2] it was 0 mm; in assay [4], 25 mm; in assay [5], 17 mm; in assay [6], 23 mm; in assay [7], 25 mm. Besides, the “Growth areas” value is listed as 14 mm in assay [8], 17 mm with E. coli AB 2847, 25 mm in [9] (M. morg. SBK 3) and 19 mm in assay [3].
Consider `CC(=O)Oc1cccc(C(=O)Nc2ccc(C(=O)O)cc2)c1OC(C)=O` [Substance 17, 4-(2,3-Diacetoxy-benzoylamino)benzoic Acid], for which the “Growth areas” value was 0 mm in assay [1], 0 mm in assay [8], 26 mm with E. coli AB 2847 and 12 mm in [9] (M. morg. SBK 3).
Take `COC(=O)Oc1ccc(C(=O)NN=C(C(=O)O)c2ccccc2)cc1OC(=O)OC` [Substance 12, {[3,4-di(Methoxycarbonyloxy)-benzoyl]-hydrazono}-phenylacetic Acid]: the “Growth areas” value in assay [1] amounted to 0 mm; in assay [2], 0 mm; in assay [4], 30 mm; in [5] it was 0 mm; in [6], 17 mm; in assay [7] it was 20 mm. The “Growth areas” value in assay [8] is given as 14 mm; with E. coli AB 2847, 14 mm; in assay [9] (M. morg. SBK 3), 15 mm; in assay [3] it was 12 mm.
For `COC(=O)Oc1ccc(C=Nc2cccc(C(=O)O)c2)cc1OC(=O)OC` [Substance 1, 3-[3,4-di(Methoxycarbonyloxy)-benzylideneamino]-benzoic Acid], the “Growth areas” value was determined as 35 mm in [1]; 0 mm in assay [2]; 0 mm in [4]; 16 mm in [5]; 26 mm in [6]; 35 mm in assay [7]. Also, the “Growth areas” value in assay [8] is 20 mm; with E. coli AB 2847 it was 0 mm; in assay [9] (M. morg. SBK 3) it was 35 mm; in assay [3], 23 mm.
Turning to `CC(=O)Oc1cccc(C(=O)N2COC[C@H]2C(=O)O)c1OC(C)=O` [Substance 26, (S)-3-(2,3-diacetoxybenzoyl)-oxazolidine-4-carboxylic Acid], the “Growth areas” value worked out at 32 mm in assay [1], 0 mm in assay [8], 14 mm with E. coli AB 2847 and 10 mm in [9] (M. morg. SBK 3).
In the case of `CC(=O)Oc1cccc(C(=O)NCCCC[C@H](NC(=O)c2cccc(OC(C)=O)c2OC(C)=O)C(=O)O)c1OC(C)=O` [Substance 25, 1L-2,6-Bis-(2,3-diacetoxybenzoylamino)-hexanoic Acid], the “Growth areas” value in [1] is on record as 28 mm; in assay [8], 18 mm; in the assay with E. coli AB 2847, 30 mm; in [9] it was 38 mm.
`CC(=O)Oc1cccc(C(=O)N[C@@H](C)C(=O)O)c1OC(C)=O` [Substance 20, L-2-(2,3-Diacetoxybenzoylamino)-propionic Acid]: the “Growth areas” value in [1] is 31 mm; in [2] it was 12 mm; in assay [5], 10 mm; with E. coli AB 2847, 18 mm; in [3], 0 mm.
Consider `O=C(NCC[C@H](NC(=O)c1cccc(O)c1O)C(=O)O)c1cccc(O)c1O` [Substance 21, L-2,4-Bis-(2,3-dihydroxybenzoylamino)-butyric Acid], for which the “Growth areas” value is listed as 36 mm in assay [1]; 40 mm in [2]; 15 mm in assay [5]; 14 mm in [8]; 33 mm with E. coli AB 2847; 15 mm in [3].
In the case of `O=C(NCCC[C@H](NC(=O)c1cccc(O)c1O)C(=O)O)c1cccc(O)c1O` [Substance 18, L-2,5-bis-(2,3-Dihydroxybenzoylamino)-pentanoic Acid], the “Growth areas” value came out at 48 mm in [1]; 50 mm in [2]; 17 mm in [5]; 20 mm in assay [8]; 30 mm with E. coli AB 2847; 18 mm in [3].
As to `O=C(NCCCCC(NC(=O)c1cccc(O)c1O)C(=O)NC[C@H](NC(=O)c1cccc(O)c1O)C(=O)O)c1cccc(O)c1O` (some centres unmarked) [Substance 22], the “Growth areas” value in [1] is on record as 50 mm; in assay [2] it was 50 mm; in [5], 40 mm; in assay [8], 48 mm; in the assay with E. coli AB 2847, 0 mm; in assay [3] it was 50 mm.
For `O=C(NCCC[C@@H](NC(=O)c1cccc(O)c1O)C(=O)O)c1cccc(O)c1O` [Substance 24, D-2,5-Bis-(2,3-dihydroxybenzoylamino)-pentanoic Acid], the “Growth areas” value in assay [1] stood at 50 mm; in assay [2] it was 40 mm; in [5], 20 mm; in assay [8] it was 20 mm; in the assay on E. coli AB 2847, 40 mm; in assay [3] it was 20 mm.
For the compound `O=C(O)C(=NNC(=O)c1ccc(O)c(O)c1)c1ccccc1` [Substance 9, [(3,4-Dihydroxybenzoyl)-hydrazono]-phenylacetic Acid], the “Growth areas” value in assay [1] amounted to 0 mm; in assay [2], 0 mm; in assay [4], 27 mm; in assay [6], 9 mm; in the assay with E. coli AB 2847 it was 0 mm; in [3], 10 mm.
Regarding `CC(=O)Oc1cccc(C(=O)Nc2ccccc2C(=O)O)c1OC(C)=O` [Substance 16, 2-(2,3-Diacetoxy-benzoylamino)-benzoic Acid], the “Growth areas” value in assay [1] amounted to 25 mm; in assay [2], 10 mm; in assay [5], 20 mm; in assay [8] it was 20 mm; in the assay with E. coli AB 2847 it was 24 mm; in [3], 20 mm.
Consider `C[C@H](NC(=O)c1cccc(O)c1O)C(=O)O` [Substance 19, L-2-(2,3-Dihydroxybenzoylamino)-propionic Acid], for which the “Growth areas” value was determined as 29 mm in assay [1]; 17 mm in [2]; 10 mm in assay [5]; 11 mm in the assay with E. coli AB 2847; 0 mm in assay [3].

The record behind these values is patent publication US6380181B1, “Synthetic catechol derivatives, method for production and use thereof” (priority 1996, dated 2002).
